{
  "source": "paper PMC11785675",
  "about": "“Phase Ib study of the oral PI3Kδ inhibitor linperlisib in patients with advanced solid tumors” (International Journal of Clinical Oncology, 2024)",
  "origin": "cited, not measured here",
  "key": {"patients [1]": {"test_system": "patients", "parameters": "method as in PMID 31619463", "conditions": "cited from earlier work"}, "patients [2]": {"test_system": "patients", "parameters": "method as in PMID 27672108", "conditions": "cited from earlier work"}, "advanced solid tumors [3]": {"test_system": "advanced solid tumors", "parameters": "method as in PMID 27672108", "conditions": "48 patients with advanced solid tumors, cited from earlier work"}, "[4]": {"test_system": "advanced or refractory solid tumors", "parameters": "method as in PMID 27915408", "conditions": "10 Japanese patients, cited from earlier work"}, "[5]": {"conditions": "comparison drugs; no reference given; cited from earlier work"}, "advanced solid tumors [6]": {"test_system": "advanced solid tumors", "parameters": "method as in PMID 35288468", "conditions": "parsaclisib monotherapy; five patients; cited from earlier work"}, "patients [7]": {"test_system": "patients", "conditions": "150 mg twice daily; 12 patients; cited from earlier work"}, "[8]": {"test_system": "thymic epithelial tumors cells carrying mutant PI3K subunits", "parameters": "method as in PMID 27117832", "conditions": "in vitro; cited from earlier work"}, "HCC cells": {"test_system": "HCC cells", "parameters": "method as in PMID 24919154, PMID 33093155", "conditions": "cited from earlier work"}, "breast cancer": {"test_system": "breast cancer", "parameters": "method as in PMID 24919154, PMID 33093155", "conditions": "cited from earlier work"}},
  "data": [
    {"compound": "COc1c(OCCCN2CCOCC2)ccc2c1N=C(NC(=O)c1cnc(N)nc1)N1CCN=C21", "note": "[copanlisib]", "values": [
      {"measurement": "TEAE fatigue, all grade", "setting": "patients [1]", "result": 46.0, "unit": "%"},
      {"measurement": "TEAE hyperglycemia, grade 3", "setting": "patients [1]", "result": 22.2, "unit": "%"},
      {"measurement": "TEAE hyperglycemia, grade 4", "setting": "patients [1]", "result": 1.6, "unit": "%"},
      {"measurement": "TEAE hypertension, all grade", "setting": "patients [1]", "result": 41.3, "unit": "%"},
      {"measurement": "TEAE hypertension, grade 3", "setting": "patients [1]", "result": 30.2, "unit": "%"},
      {"measurement": "TEAE hypertension, grade 4", "setting": "patients [1]", "result": 0},
      {"measurement": "TEAE hypophosphatemia, grade 3", "setting": "patients [1]", "result": 11.1, "unit": "%"},
      {"measurement": "TEAE hypophosphatemia, grade 4", "setting": "patients [1]", "result": 0},
      {"measurement": "TEAE lymphocyte count decreased, grade 3", "setting": "patients [1]", "result": 7.9, "unit": "%"},
      {"measurement": "TEAE lymphocyte count decreased, grade 4", "setting": "patients [1]", "result": 4.8, "unit": "%"},
      {"measurement": "Patients with AEs possibly related to copanlisib", "setting": "patients [2]; 49 patients", "result": 86, "unit": "%"},
      {"measurement": "Drug-related grade 3 AE hyperglycemia", "setting": "patients [2]", "result": 30, "unit": "%"},
      {"measurement": "Drug-related grade 3 AE hypertension", "setting": "patients [2]", "result": 14, "unit": "%"},
      {"measurement": "Drug-related grade 3 AE rash", "setting": "patients [2]", "result": 7, "unit": "%"},
      {"measurement": "TRAE hyperglycemia, all grades", "setting": "patients [2]", "result": 63, "unit": "%"},
      {"measurement": "TRAE hypertension, all grades", "setting": "patients [2]", "result": 21, "unit": "%"},
      {"measurement": "TRAE nausea, all grades", "setting": "patients [2]", "result": 37, "unit": "%"},
      {"measurement": "Patients achieving stable disease", "setting": "advanced solid tumors [3]", "result": 15, "unit": "patients"},
      {"measurement": "Patients achieving CR", "setting": "advanced solid tumors [3]; endometrial carcinoma with PIK3CA and PTEN mutations", "result": "one"},
      {"measurement": "Patients with PR", "setting": "advanced solid tumors [3]; metastatic breast cancer", "result": "two"},
      {"measurement": "3-month PFS rate", "setting": "[4]; 95% CI 1–40", "result": 12, "unit": "%"},
      {"measurement": "Median PFS", "setting": "[4]; 95% CI 21–82", "result": 52, "unit": "days"},
      {"measurement": "CR or PR", "setting": "[4]", "result": "no patients achieved a CR or PR"},
      {"measurement": "DCR", "setting": "[4]", "result": 40.0, "unit": "%"}
    ]},
    {"compound": "C[C@H](Nc1ncnc2[nH]cnc12)c1cc2cccc(Cl)c2c(=O)n1-c1ccccc1", "note": "[duvelisib, reference compound]", "values": [
      {"measurement": "Route of excretion", "setting": "[5]", "result": "predominantly excreted via the intestines"}
    ]},
    {"compound": "CCOc1c([C@H](C)n2nc(C)c3c(N)ncnc32)cc(Cl)c(F)c1[C@@H]1CNC(=O)C1", "note": "[parsaclisib]", "values": [
      {"measurement": "CR or PR", "setting": "advanced solid tumors [6]", "result": "none achieved a CR or PR"}
    ]},
    {"compound": "CC[C@H](Nc1ncnc2[nH]cnc12)c1nc2cccc(F)c2c(=O)n1-c1ccccc1", "note": "[idelalisib]", "values": [
      {"measurement": "Grade ≥ 3 TEAE increased ALT", "setting": "patients [7]", "result": 25, "unit": "%"},
      {"measurement": "Grade ≥ 3 TEAE increased AST", "setting": "patients [7]", "result": 41.7, "unit": "%"},
      {"measurement": "Grade ≥ 3 TEAE maculopapular rash", "setting": "patients [7]", "result": 25, "unit": "%"},
      {"measurement": "TEAE increased ALT", "setting": "patients [7]", "result": 33.3, "unit": "%"},
      {"measurement": "TEAE increased AST", "setting": "patients [7]", "result": 41.7, "unit": "%"},
      {"measurement": "TEAE maculopapular rash", "setting": "patients [7]", "result": 25, "unit": "%"},
      {"measurement": "TEAE pyrexia", "setting": "patients [7]", "result": 50, "unit": "%"}
    ]},
    {"compound": "CS(=O)(=O)N1CCN(Cc2cc3nc(-c4cccc5[nH]ncc45)nc(N4CCOCC4)c3s2)CC1", "note": "[GDC-0941]", "values": [
      {"measurement": "Antitumor activity", "setting": "[8]", "result": "in vitro antitumor activity"}
    ]},
    {"compound": "Fc1ccc2[nH]ccc2c1-c1nc(N2CCOCC2)c2sc(CN3CCN(CC4CC4)CC3)cc2n1", "note": "[PI-3065]", "values": [
      {"measurement": "Apoptosis of HCC cells", "setting": "HCC cells", "result": "directly induce apoptosis of HCC cells"},
      {"measurement": "Growth and metastasis of breast cancer", "setting": "breast cancer", "result": "significantly inhibit growth and metastasis of breast cancer"}
    ]}
  ]
}
